Results taken from patent EP0528699B1, “Saishin N derivatives, process for their preparation and anti-ulcer agents containing them” (TOKYO TANABE COMPANY LIMITED, priority 1991, dated 1993).
Where a name gives a salt, the structure may show the parent alone. Read-outs that look alike come from different tables or passages of the source. Marks after values point to notes of the source that are not given here.

Key:
[1] = system: Hydrochloric acid-Ethanol-Induced Ulcers; assay: Hydrochloric acid-Ethanol-Induced Ulcers; type: in vivo, male Wister rats; conditions: Rattus norvegicus, intraduodenal, read-out: Inhibition ratio(%); for inhibition in vivo at 10 mg/kg: dose 10 mg/kg intraduodenally one hour before hydrochloric acid - 60% ethanol
Protocol: (§1) Experiments on Hydrochloric acid-Ethanol-Induced Ulcers, Aspirin-Induced Ulcers, Water-Immersion stress-Induced Ulcers, Shay's Ulcers and Serotonin-Induced Ulcers were carried out using male Wister rats weighing about 200g in groups of six. Experiments on Ischemia-Reperfusion -Induced Gastric Lesions were carried out using male SD rats weighing about 250g in groups of six. Other than for the tests on Ischemia-Reperfusion-Induced Gastric Lesions Models, the test compounds were prepared by mixing thoroughly with polyethyleneglycol and 0.5% sodium carboxymethyl cellulose solution and emulsifying vigorously. Activities against respective ulcer models were evaluated by an inhibiting ratio obtained by dividing the difference between the ulceration indexes of the non-administered group and the test compound group by the non-administered group.
To each rat which had been fasted for 24 hours was orally administered 0.5ml of a mixed solution of 150 mM hydrochloric acid - 60% ethanol per 100g of weight. Each rat was slaughtered after one hour, a length of ulcer formed at the fundus gland area of stomach was measured and ulceration index was calculated based on the length. The test compound was administered intraduodenally one hour or three hours before the administration of mixed solution of hydrochloric acid - 60% ethanol.

[2] = system: Water-Immersion stress-Induced Ulcers; assay: Water-Immersion stress-Induced Ulcers; type: in vivo, male Wister rats; conditions: Rattus norvegicus, po, 10 h, read-out: Water-Immersion Stress, inhibiting ratio; for inhibition in vivo at 20 mg/kg: dose 20 mg/kg orally 10 minutes before the exposure to stress; for inhibition in vivo at 50 mg/kg: dose 50 mg/kg orally 10 minutes before the exposure to stress
Protocol: as §1
Each rat which had been fasted for 15 hours was immobilized in a stress cage and immersed to chest depth in a water bath at 21°C. Each rat was slaughtered after 10 hours, a length of ulcer formed at the fundus gland area of stomach was measured and ulceration index was calculated based on the length. The test compound was administered orally 10 minutes before the exposure to stress.
(§2) The results of Aspirin-Induced Ulcers, Water-immersion stress-Induced Ulcers, Shay's Ulcers, Serotonin-induced Ulcers and Ischemia-Reperfusion-Induced Gastric lesions are shown in Table 3.

[3] = system: Shay's Ulcers; assay: Shay's Ulcers; type: in vivo, male Wister rats; conditions: Rattus norvegicus, intraduodenal, 14 h, read-out: Shay, inhibiting ratio; for inhibition in vivo at 50 mg/kg: dose 50 mg/kg intraduodenally immediately after the ligation; for inhibition in vivo at 300 mg/kg: dose 300 mg/kg intraduodenally immediately after the ligation
Protocol: as §1
In each rat which had been fasted for 48 hours, the pyloric end of stomach was ligated, and each was kept without giving any food or water for 14 hours. Each rat was then slaughtered, and area of ulcer formed in the forestomach was measured and ulceration inded was calculated based on the area. The test compound was administered intraduodenally immediately after the ligation.
as §2

[4] = system: Serotonin-Induced Ulcers; assay: Serotonin-Induced Ulcers; type: in vivo, male Wister rats; conditions: Rattus norvegicus, 4.5 h, read-out: Serotonin, inhibiting ratio; for inhibition in vivo at 20 mg/kg: dose 20 mg/kg intraduodenally 30 minutes before Serotonin creatinine sulfate 30 mg/kg subcutaneously; for inhibition in vivo at 50 mg/kg: dose 50 mg/kg intraduodenally 30 minutes before Serotonin creatinine sulfate 30 mg/kg subcutaneously
Protocol: as §1
To each rat which had been fasted for 24 hours, 30 mg/kg of a solution of serotonin creatinine sulfate in a saline solution was administered subcutaneously. Each rat was then slaughtered after 4 and a half hours and area of gastric mucosal lesion formed facing the center line of greater curvature of the corpus ventriculi of stomach was measured and ulceration index was calculated based on the area. The test compound was administered intraduodenally 30 minutes before the administration of the Serotonin creatinine sulfate.
as §2

[5] = system: Ischemia-Reperfusion-Induced Gastric Lesions; assay: Ischemia-Reperfusion-Induced Gastric Lesions; type: in vivo, male SD rats; conditions: dose 40 mg/kg in dimethylsulfoxide from the caudal artery 30 minutes before beginning collection of the blood
Protocol: as §1
Each rat which had been fasted for 24 hours was anesthetized intraperitoneally with Nembutal and immobilized on a constant temperature pad in a dorsal position. After tracheotomy was performed, blood pressure was measured via a transducer for blood pressure from a cannula inserted in right carotid. The abdomen was opened, and the gastroesophageal junction was ligated. A tube was then passed through the duodenostomy into the stomach and the gastric lumen was lavaged with warm saline. 1 ml of 0.1N hydrochloric acid per 100g body weight was instilled into the stomach via the gastric tube and the pylorus was ligated. When the blood pressure became stable, 2% of weight (w/w) of the blood was collected from a cannula inserted in the left carotid into a syringe containing a heparin added saline solution. After 20 minutes, the collecting blood was retransfused and each rat was left to stand for 20 minutes, and slaughtered and the area of gastric mucosal lesions was measured and ulceration index was calculated based on the area. The test compound was dissolved in dimethylsulfoxide and administered at a dose of 40 mg/kg from the caudal artery 30 minutes before beginning collection of the blood.
as §2

[6] = system: Aspirin-Induced Ulcers; assay: Aspirin-Induced Ulcers; type: in vivo, male Wister rats; conditions: Rattus norvegicus, 9 h, 5 minutes before 150 mg/kg of aspirin orally, read-out: Aspirin, inhibiting ratio; for inhibition in vivo at 50 mg/kg: dose 50 mg/kg intraduodenally at pylorus ligation
Protocol: as §1
In each rat which had been fasted for 24 hours, the pyloric end of the stomach was ligated, and simultaneously the test compound was administered intraduodenally, and after 5 minutes, 150 mg/kg of aspirin was administered orally, respectively. After 9 hours from ligation, each rat was slaughtered, a length of ulcer formed at the fundus gland area of stomach was measured and ulceration index was calculated based on the length.
as §2

[7] = 3 h, Table 1, dose 20 mg/kg intraduodenally three hours before hydrochloric acid - 60% ethanol

Compound | inhibition in vivo at 20 mg/kg [1, 7] [%] | inhibition in vivo at 20 mg/kg [2] [%] | inhibition in vivo at 50 mg/kg [3] [%] | inhibition in vivo at 20 mg/kg [4] [%] | Ischemia-Reperfusion, inhibiting ratio [5] | inhibition in vivo at 50 mg/kg [2] [%] | inhibition in vivo at 50 mg/kg [6] [%] | also measured
COC12CC(C)(C)C(O1)C(O)CC2C (stereo not drawn) [AU105B, 2,4-cis-1-methoxy-2,6.6-trimethyl-8-oxabicyclo [3.2.1] octan-4-ol] | 63 | 65 | 44 | 80 | 52(40)* | – | – | inhibition in vivo at 10 mg/kg ([1]; 1 h, Table 2): 86%
COC1C=C(C)C(=O)CC(C)(C)C1O (centres unmarked) [AU154, 5-hydroxy-4-methoxy-2,6,6-trimethyl-2-cyclohepten-1-one] | 21 | – | 22 | 46 | – | 17 | – | inhibition in vivo at 10 mg/kg ([1]; 1 h, Table 2): 67%
CC1=CC(OC(=O)c2ccccc2)C(O)C(C)(C)CC1=O (centres unmarked) [AU190, 4-benzoyloxy-5-hydroxy-2,6,6-trimethyl-2-cyclohepten-1-one] | 66 | – | 55 | 69 | – | 45 | 55 | –
CC1=CC(O)C(OC(=O)C=Cc2ccccc2)C(C)(C)CC1=O (centres unmarked) [AU205, 5-cinnamoyloxy-4-hydroxy-2,6,6-trimethyl-2-cyclohepten-1-one] | 83 | 42 | 50 | 80 | – | – | 53 | –
CC1=CC(OC(=O)c2ccc([N+](=O)[O-])cc2)C(O)C(C)(C)CC1=O (centres unmarked) [AU212, 5-hydroxy-4-(4-nitrobenzoyloxy)-2,6,6-trimethyl-2-cyclohepten-1-one] | 90 | 48 | 75 | 71 | 63(40)** | – | – | inhibition in vivo at 20 mg/kg ([6]; dose 20 mg/kg intraduodenally at pylorus ligation): 46%
CC1=CC(OC(=O)c2ccc(N)cc2)C(O)C(C)(C)CC1=O (centres unmarked) [AU215, 4-(4-aminobenzoyloxy)-5-hydroxy-2,6,6-trimethyl-2-cyclohepten-1-one] | 56 | 45 | 73 | 81 | 90(40)** | – | 66 | –
COC1C(O)C=C(C)C(=O)CC1(C)C (centres unmarked) [AU222, 4-hydroxy-5-methoxy-2,6,6-trimethyl-2-cyclohepten-1-one] | 54 | 34 | 58 | 84 | – | – | 28 | –
COC12CC(C)(C)C(O1)C(OC(=O)c1ccc(N)cc1)C=C2C (centres unmarked) [AU245, 4-(4-aminobenzoyloxy)-1-methoxy-2,6,6-trimethyl-8-oxabicyclo [3.2.1] oct-2-ene] | 58 | 38 | 35 | 38 | 93(40)** | – | 63 | –
COC1C=C(C)C(=O)CC(C)(C)C1OC(=O)c1ccc([N+](=O)[O-])cc1[N+](=O)[O-] (centres unmarked) [AU407, 5-(2,4-dinitrobenzoyloxy)-4-methoxy-2,6,6-trimethyl-2-cyclohepten-1-one] | 82 | – | – | 41 | – | 50 | 71 | –
COC1C=C(C)C(=O)CC(C)(C)C1OC(=O)c1ccc(N)cc1N (centres unmarked) [AU408, 5-(2,4-diaminobenzoyloxy)-4-methoxy-2,6,6-trimethyl-2-cyclohepten-1-one] | 58 | – | 43 | 44 | 75(40)** | 56 | 73 | –
CC1=CC(OC(=O)c2cccn2C)C(O)C(C)(C)CC1=O (centres unmarked) [AU501, 4-(1-methyl-2-pyrrolylcarbonyloxy)-5-hydroxy-2,6,6-trimethyl-2-cyclohepten-1-one] | 56 | – | – | – | 77(40)** | 22 | 30 | inhibition in vivo at 50 mg/kg [4]: 55%
NC[C@H]1CC[C@H](C(=O)Oc2ccc(CCC(=O)O)cc2)CC1 [Cetraxatehydrochloride, reference compound] | – | – | – | – | – | – | – | inhibition in vivo at 300 mg/kg ([6]; dose 300 mg/kg intraduodenally at pylorus ligation): 33%; inhibition in vivo at 300 mg/kg ([2]; dose 300 mg/kg orally 10 minutes before the exposure to stress): 45%; inhibition in vivo at 300 mg/kg [3]: 11%
CC1=CC(O)C(O)C(C)(C)CC1=O (centres unmarked) [Saishin N, 4,5-dihydroxy-2,6,6-trimethyl-2-cycloheptene-1-one] | 15 | – | – | 13 | – | 49 | 52 | inhibition in vivo at 10 mg/kg ([1]; 1 h, Table 2): 35%; inhibition in vivo at 20 mg/kg ([1]; 1 h, Table 2, dose 20 mg/kg intraduodenally one hour before hydrochloric acid - 60% ethanol): 88%; inhibition in vivo at 50 mg/kg ([1]; 3 h, Table 1, dose 50mg/kg intraduodenally three hours before hydrochloric acid - 60% ethanol): 83%; inhibition in vivo at 100 mg/kg ([6]; dose 100 mg/kg intraduodenally at pylorus ligation): 60%; inhibition in vivo at 100 mg/kg ([2]; dose 100 mg/kg orally 10 minutes before the exposure to stress): 62%; inhibition in vivo at 100 mg/kg ([3]; dose 100 mg/kg intraduodenally immediately after the ligation): 49%; inhibition in vivo at 300 mg/kg [3]: 58%; inhibition in vivo at 50 mg/kg [4]: 36%
